pIC50: −log10 of the molar value.

Common to all, as to format: functional, organism-based
One assay concerns Leishmania amazonensis. In words: Antileishmanial activity against Leishmania amazonensis promastigotes after 72 hrs by EGFP-reporter gene based fluorescence assay.
A further assay has as its system Trypanosoma congolense. In words: Antitrypanosomal activity against Trypanosoma congolense IL3000 incubated for 48 hrs measured after 4 hrs.
A further assay relates to Leishmania donovani. In words: Antileishmanial activity against Leishmania donovani MHOM/NP/03/D10 promastigotes after 72 hrs by EGFP-reporter gene based fluorescence assay. The note with it: MHOM/NP/03/D10, 72 h. On the technique in general: Reporter assays use an easily measured gene product as a stand-in for the process of interest.

For `CC(=O)O/C=C1\CCC/C(C=O)=C\C[C@@H]2C(C(=O)CC=C(C)C)=CO[C@H](OC(C)=O)[C@@H]12`, the negative logarithm of the IC50 (pIC50) (as a rule, the negative decadic logarithm of the IC50, by convention in mol/L) in the assay with Leishmania amazonensis is 7.06; with Trypanosoma congolense, 6.60.
On to `CO[C@H]1OC=C(C(=O)OC(C)C)[C@H]2C/C=C(/C=O)CCCC(=O)[C@H]12`, for which the pIC50 with Leishmania donovani is 5.62.

The record behind these values is ChEMBL document CHEMBL4425181, “Synthesis and antileishmanial activity of the core structure of cristaxenicin A” (Bioorg Med Chem Lett, 2016).
